{"source": "patent US8415476B2", "about": "“Indazole having analgesic activity” (Aziende Chimiche Riunite Angelini Francesco A.C.R.A.F. …, priority 2003, dated 2013)", "key": {"[1]": {"system": "mechanical hyperalgesia in rats with diabetes induced by streptozotocin", "test": "Mechanical hyperalgesia in rats with diabetes induced by streptozotocin", "type": "in vivo, rat", "conditions": "male CD rats, streptozotocin 80 mg/kg i.p. diabetic neuropathy, dose 10^-5 mol/kg, vehicle 112 ± 4.0, normal animals 240±8.7 g", "experimental": "The pain threshold of normal animals of equal weight/age=155±2.1 g 2. Mechanical Hyperalgesia in Rats with Diabetes Induced by Streptozotocin\nMale CD rats weighing 240-300 g on arrival were used.\nDiabetic syndrome was induced by a single intraperitoneal (i.p.) injection of 80 mg/kg of streptozotocin dissolved in sterile physiological solution [Courteix C, Eschalier A, Lavarenne J. Streptozotocin-induced diabetic rats: behavioural evidence for a model of chronic pain. Pain, 1993; 53: 81-88; Bannon A W, Decker M W, Kim Dj, Campbell J E, Arneric S P. ABT-594, a novel cholinergic channel modulator, is efficacious in nerve ligation and diabetic neuropathy models of neuropathic pain. Brain Res. 1998; 801: 158-63].\nAfter at least three weeks following the injection of streptozotocin, rats were selected having a level of glycaemia ≧300 mg/dl and having a response threshold to a mechanical nociceptive stimulus ≦120 g. The glycaemia levels were measured by means of a reflectometer using reactive strips impregnated with glucose oxidase. The pain threshold was measured using an analgesiometer. By applying a gradual increase in pressure on the dorsal zone of the rat's left hind foot, the instrument makes it possible to record the nocifensive response, expressed in grams, corresponding to the moment when the animal retracts its foot.\nAt 2 h following the treatment, the pain threshold measured in control animals was compared with that measured in animals treated with the product under examination (dose 10^−5 mol/kg).\nThe control animals were treated with the same vehicle (water) used for administering the products under examination."}, "[2]": {"system": "mechanical hyperalgesia induced by CFA in the rat", "test": "Mechanical hyperalgesia induced by CFA in the rat", "type": "in vivo", "conditions": "male CD rats, dose 10^-5 mol/kg, test 23 hours after injection of CFA, vehicle 121 ± 4.1, normal animals 155±2.1 g", "excerpt": "1. Mechanical Hyperalgesia Induced by CFA in the Rat\nMale CD rats weighing 150-200 g on arrival were used. Using an analgesiometer, rats were selected having a response threshold to a mechanical nociceptive stimulus of from 150 to 180 g. By applying a gradual increase in pressure on the dorsal zone of the rat's left hind foot, the instrument makes it possible to record the nocifensive response, expressed in grams, corresponding to the moment when the animal retracts its foot [Randall L O and Semite J J. A method for the measurement of analgesic activity on inflamed tissue. Arch. Int. Pharmacodyn. Ther. 1957; 111: 409-419].\nHyperalgesia was induced by unilateral injection of 150 μl of Complete Freund's Adjuvant (CFA) in the plantar surface of the animal's left hind foot [Andrew D, Greenspan J D. Mechanical and heat sensitization of cutaneous nociceptors after peripheral inflammation in the rat. J Neurophysiol 1999; 82(5): 2649-2656; Hargreaves K, Dubner R, Brown R, Flores C, Joris J. A new and sensitive method for measuring thermal nociception in cutaneous hyperalgesia. Pain 1988; 32: 77-88].\nThe compounds under examination were tested (dose 10^−5 mol/kg) by carrying out the test 23 hours after injection of CFA.\nAt 1 h following the treatment, the pain threshold measured in control animals was compared with that measured in animals treated with the product under examination. The control animals were treated with the same vehicle (water) used for administering the products under examination."}}}
{"smiles": "Cl.Cn1nc(NC(=O)C2CCN(CCc3ccccc3)CC2)c2ccccc21", "note": "[AF3R334, N-(1-methyl-1H-indazol-3-yl)-1-(2-phenylethyl)piperidine-4-carboxamide hydrochloride]", "values": [{"measurement": "Pain threshold (g) 2 h after treatment", "setting": "[1]", "result": "184 ± 10.5", "unit": "g"}, {"measurement": "melting point", "result": "235 to 237", "unit": "°C"}, {"measurement": "Pain threshold (g) 1 h after treatment", "setting": "[2]", "result": "170 ± 11.0", "unit": "g"}]}
{"smiles": "CC(C)n1nc(C(=O)NCC2CCN(CCc3ccc([N+](=O)[O-])cc3)CC2)c2ccccc21.O=C(O)C(=O)O", "note": "[AF3R306, N((1-(2-(4-nitrophenyl)ethyl)-4-piperidinyl)methyl)-1-(1-methylethyl)-1H-indazole-3-carboxamide oxalate]", "values": [{"measurement": "Pain threshold (g) 2 h after treatment", "setting": "[1]", "result": "184 ± 13.8", "unit": "g"}, {"measurement": "Pain threshold (g) 1 h after treatment", "setting": "[2]", "result": "186 ± 11.0", "unit": "g"}]}
{"smiles": "COc1ccc(CCN2CCC(C(=O)Nc3nn(C)c4ccccc34)CC2)cc1.Cl", "note": "[AF3R328, N-(1-methyl-1H-indazol-3-yl)-1-(2-(4-methoxyphenyl)ethyl)piperidine-4-carboxamide hydrochloride]", "values": [{"measurement": "Pain threshold (g) 2 h after treatment", "setting": "[1]", "result": "158 ± 6.2", "unit": "g"}, {"measurement": "melting point", "result": "137 to 139 °C (dec.)"}, {"measurement": "Pain threshold (g) 1 h after treatment", "setting": "[2]", "result": "150 ± 8.7", "unit": "g"}]}
{"smiles": "CC(C)n1nc(C(=O)NCC2CCN(CCc3ccc(N)cc3)CC2)c2ccccc21.Cl.Cl", "note": "[AF3R294, N((1-(2-(4-aminophenyl)ethyl)-4-piperidinyl)methyl)-1-(1-methylethyl)-1H-indazole-3-carboxamide dihydrochloride]", "values": [{"measurement": "Pain threshold (g) 2 h after treatment", "setting": "[1]", "result": "198 ± 18.6", "unit": "g"}, {"measurement": "Pain threshold (g) 1 h after treatment", "setting": "[2]", "result": "194 ± 22.4", "unit": "g"}]}
{"smiles": "Cl.Cl.Nc1ccc(CCN2CCC(CNC(=O)c3n[nH]c4ccccc34)CC2)cc1", "note": "[AF3R302, N((1-(2-(4-aminophenyl)ethyl)-4-piperidinyl)methyl)-1H-indazole-3-carboxamide dihydrochloride]", "values": [{"measurement": "Pain threshold (g) 2 h after treatment", "setting": "[1]", "result": "164 ± 10.2", "unit": "g"}, {"measurement": "Pain threshold (g) 1 h after treatment", "setting": "[2]", "result": "160 ± 10.2", "unit": "g"}]}
{"smiles": "Cl.O=C(NCC1CCN(CCc2ccc([N+](=O)[O-])cc2)CC1)c1n[nH]c2ccccc12", "note": "[AF3R298, N((1-(2-(4-nitrophenyl)ethyl)-4-piperidinyl)methyl)-1H-indazole-3-carboxamide hydrochloride]", "values": [{"measurement": "Pain threshold (g) 2 h after treatment", "setting": "[1]", "result": "170 ± 10.2", "unit": "g"}, {"measurement": "Pain threshold (g) 1 h after treatment", "setting": "[2]", "result": "174 ± 9.8", "unit": "g"}]}
{"smiles": "Cl.Cn1nc(NC(=O)C2CCN(CCc3ccc(O)cc3)CC2)c2ccccc21", "note": "[AF3R330]", "values": [{"measurement": "Pain threshold (g) 2 h after treatment", "setting": "[1]", "result": "171 ± 9.6", "unit": "g"}, {"measurement": "Pain threshold (g) 1 h after treatment", "setting": "[2]", "result": "161 ± 10.5", "unit": "g"}]}
{"smiles": "Cc1ccc2c(c1)c(C(=O)NCC1CCN(CCc3ccc(O)cc3)CC1)nn2C(C)C.Cl", "note": "[AF3R296, N((1-(2-(4-hydroxyphenyl)ethyl)-4-piperidinyl)methyl)-5-methyl-1-(1-methylethyl)-1H-indazole-3-carboxamide hydrochloride]", "values": [{"measurement": "Pain threshold (g) 2 h after treatment", "setting": "[1]", "result": "154 ± 8.7", "unit": "g"}, {"measurement": "Pain threshold (g) 1 h after treatment", "setting": "[2]", "result": "151 ± 10.7", "unit": "g"}]}
